Measurements taken from US9403801B2 (Calitor Sciences, LLC, priority 2014, dated 2016).

How the values were obtained:
JAK1 (h) = JAK1 (h) (Homo sapiens (Human), UniProt P23458); experiment: JAK1 kinase assay (33P-ATP filter binding, Millipore); format: biochemical
Method: Kinase assays can be performed by measurement of incorporation of γ-^33P ATP into immobilized myelin basic protein (MBP). High binding white 384 well plates (Greiner) are coated with MBP (Sigma #M−1891) by incubation of 60 μL/well of 20 μg/mL MBP in Tris-buffered saline (TBS; 50 mM Tris pH 8.0, 138 mM NaCl, 2.7 mM KCl) for 24 h at 4° C. Plates are washed 3× with 100 μL TBS. Kinase reactions are carried out in a total volume of 34 μL in kinase buffer (5 mM Hepes pH 7.6, 15 mM NaCl, 0.01% bovine gamma globulin (Sigma #I-5506), 10 mM MgCl2, 1 mM DTT, 0.02% TritonX-100). Compound dilutions are performed in DMSO and added to assay wells to a final DMSO concentration of 1%. Each data point is measured in duplicate, and at least two duplicate assays are performed for each individual compound determination. Enzyme is added to final concentrations of 10 nM or 20 nM, for example. A mixture of unlabeled ATP and γ-^33P ATP is added to start the reaction (2×10^6 cpm of γ-^33P ATP per well (3000 Ci/mmole) and 10 μM unlabeled ATP, typically. The reactions are carried out for 1 h at room temperature with shaking. Plates are washed 7× with TBS, followed by the addition of 50 μL/well scintillation fluid (Wallac). Plates are read using a Wallac Trilux counter. This is only one format of such assays; various other formats are possible, as known to one skilled in the art.
The above assay procedure can be used to determine the IC50 for inhibition and/or the inhibition constant, Ki. The IC50 is defined as the concentration of compound required to reduce the enzyme activity by 50% under the condition of the assay. The IC50 value is estimated by preparing a 10 point curve using a 1/2 log dilution series (for example, a typical curve may be prepared using the following compound concentrations: 3 μM, 1 μM, 0.3 μM, 0.1 μM, 0.03 μM, 0.01 μM, 0.003 μM, 0.001 μM, 0.0003 μM and 0 μM).
The kinase assays described herein were performed at Millipore UK Ltd, Dundee Technology Park, Dundee DD2 1SW, UK.

[1] = Pharmacokinetics after intravenous and oral administration in rats; format: in vivo; conditions: for Clearance (CL) after iv dosing / AUC(0-t) / half-life / Vd: dose 1 mg/kg (Ex. 27: 0.72 mg/kg), iv dosing; for F: oral bioavailability; for AUC(0-t) / half-life / Vd: rat, plasma; for Vd: read-out: Vss
Method: The LC/MS/MS system used in the analysis consists of an Agilent 1200 Series vacuum degasser, binary pump, well-plate autosampler, thermostatted column compartment, the Agilent G6430 Triple Quadrupole Mass Spectrometer with an electrosprayionization (ESI) source. Quantitative analysis was carried out using MRM mode. The parameters for MRM transitions are in the Table A.
An Agilent XDB-C18, 2.1×30 mm, 3.5 μM column was used for the analysis. 5 μL of the samples were injected. Analysis condition: The mobile phase was 0.1% formic acid in water (A) and 0.1% formic acid in methanol (B). The flow rate was 0.4 mL/min. And the gradient of Mobile phase was in the Table B.
Alternatively, an Agilent 6330 series LC/MS/MS spectrometer equipped with G1312A binary pumps, a G1367A autosampler and a G1314C UV detector were used in the analysis. An ESI source was used on the LC/MS/MS spectrometer. The analysis was done in positive ion mode as appropriate and the MRM transition for each analyte was optimized using standard solution. A Capcell MP-C18 100×4.6 mm I.D., […] column (Phenomenex, Torrance, Calif., USA) was used during the analysis. The mobile phase was 5 mM ammonia acetate, 0.1% MeOH in water (A): 5 mM ammonia acetate, 0.1% MeOH in acetonitrile (B) (70:30, v/v). The flow rate was 0.6 mL/min. Column was maintained at ambient temperature. 20 μL of the samples were injected.
The compounds disclosed herein are assessed in pharmacokinetic studies in mice, rats, dogs or monkeys. The compounds are administered as a water solution, 2% HPMC+1% TWEEN®80 in water solution, 5% DMSO+5% solution in saline, 4% MC suspension or capsule. For the intravenous administration, the animals are generally given at 1 or 2 mg/kg dose. For the oral (p.o.) dosing, mice and rats are generally given 5 or 10 mg/kg dose, and dogs and monkeys are generally given 10 mg/kg dose. The blood samples (0.3 mL) are drawn at 0.25, 0.5, 1.0, 2.0, 3.0, 4.0, 6.0, 8.0, 12 and 24 h time points or 0.083, 0.25, 0.5, 1.0, 2.0, 4.0, 6.0, 8.0 and 24 h time points and centrifuged at 3,000 or 4000 rpm for 2 to 10 min. The plasma solutions are collected, and stored at −20° C. or −70° C. until analyzed by LC/MS/MS as described above.

[2] = Compound stability in rat liver microsomes; format: in vitro ADME; conditions: for half-life at 5 μM: compound 5 μM, NADPH 1.0 mM, 37° C.; for CLint scaled at 5 μM: in vivo CLint extrapolated
Method: (§1) Human or rat liver microsomes incubations were conducted in duplicate in polypropylene tubes. The typical incubation mixtures consisted of human or rat liver microsomes (0.5 mg protein/mL), compounds of interest (5 μM) and NADPH (1.0 mM) in a total volume of 200 μL potassium phosphate buffer (PBS, 100 mM, pH 7.4). Compounds were dissolved in DMSO and diluted with PBS such that the final concentration of DMSO was 0.05%. The enzymatic reactions were commenced with the addition of protein after a 3-min preincubation and incubated in a water bath open to the air at 37° C. Reactions were terminated at various time points (0, 5, 10, 15, 30, 60 min) by adding equal volume of ice-cold acetonitrile. The samples were stored at −80° C. until LC/MS/MS assays.
(§2) The concentrations of compounds in the incubation mixtures of human or rat liver microsomes were determined by a LC/MS/MS method. The ranges of the linearity in the concentration range were determined for each tested compounds.
(§3) A parallel incubation was performed using denatured microsomes as the negative control, and reactions were terminated at various time points (0, 15, 60 min) after incubation at 37° C.
(§4) Dextromethorphan (70 μM) was selected as the positive control, and reactions were terminated at various time points (0, 5, 10, 15, 30, 60 min) after incubation at 37° C. Both positive and negative control samples were included in each assay to ensure the integrity of the microsomal incubation system.
(§5) The concentrations of compounds in human or rat liver microsome incubations were plotted as a percentage of the relevant zero time point control for each reaction. The in vivo CLint were extrapolated (ref.: Naritomi, Y.; Terashita, S.; Kimura, S.; Suzuki, A.; Kagayama, A.; and Sugiyama, Y.; Prediction of human hepatic clearance from in vivo animal experiments and in vitro metabolic studies with liver microsomes from animals and humans. Drug Metab. Dispos., 2001, 29: 1316-1324).

[3] = Compound stability in human liver microsomes; format: in vitro ADME; conditions: for half-life at 5 μM: compound 5 μM, NADPH 1.0 mM, 37° C.; for CLint scaled at 5 μM: in vivo CLint extrapolated
Method: as §1, §2, §3, §4, §5

[4] = pH 7.4, Rat liver microsomes 0.5 mg protein/mL
[5] = pH 7.4, Human liver microsomes 0.5 mg protein/mL
[6] = rat, liver microsomes, pH 7.4, Rat liver microsomes 0.5 mg protein/mL
[7] = rat, liver microsomes, pH 7.4, Rat liver microsomes
[8] = human, liver microsomes, pH 7.4, Human liver microsomes 0.5 mg protein/mL
[9] = human, liver microsomes, pH 7.4, Human liver microsomes

JAK1 (h), sequence (P23458 whole entry): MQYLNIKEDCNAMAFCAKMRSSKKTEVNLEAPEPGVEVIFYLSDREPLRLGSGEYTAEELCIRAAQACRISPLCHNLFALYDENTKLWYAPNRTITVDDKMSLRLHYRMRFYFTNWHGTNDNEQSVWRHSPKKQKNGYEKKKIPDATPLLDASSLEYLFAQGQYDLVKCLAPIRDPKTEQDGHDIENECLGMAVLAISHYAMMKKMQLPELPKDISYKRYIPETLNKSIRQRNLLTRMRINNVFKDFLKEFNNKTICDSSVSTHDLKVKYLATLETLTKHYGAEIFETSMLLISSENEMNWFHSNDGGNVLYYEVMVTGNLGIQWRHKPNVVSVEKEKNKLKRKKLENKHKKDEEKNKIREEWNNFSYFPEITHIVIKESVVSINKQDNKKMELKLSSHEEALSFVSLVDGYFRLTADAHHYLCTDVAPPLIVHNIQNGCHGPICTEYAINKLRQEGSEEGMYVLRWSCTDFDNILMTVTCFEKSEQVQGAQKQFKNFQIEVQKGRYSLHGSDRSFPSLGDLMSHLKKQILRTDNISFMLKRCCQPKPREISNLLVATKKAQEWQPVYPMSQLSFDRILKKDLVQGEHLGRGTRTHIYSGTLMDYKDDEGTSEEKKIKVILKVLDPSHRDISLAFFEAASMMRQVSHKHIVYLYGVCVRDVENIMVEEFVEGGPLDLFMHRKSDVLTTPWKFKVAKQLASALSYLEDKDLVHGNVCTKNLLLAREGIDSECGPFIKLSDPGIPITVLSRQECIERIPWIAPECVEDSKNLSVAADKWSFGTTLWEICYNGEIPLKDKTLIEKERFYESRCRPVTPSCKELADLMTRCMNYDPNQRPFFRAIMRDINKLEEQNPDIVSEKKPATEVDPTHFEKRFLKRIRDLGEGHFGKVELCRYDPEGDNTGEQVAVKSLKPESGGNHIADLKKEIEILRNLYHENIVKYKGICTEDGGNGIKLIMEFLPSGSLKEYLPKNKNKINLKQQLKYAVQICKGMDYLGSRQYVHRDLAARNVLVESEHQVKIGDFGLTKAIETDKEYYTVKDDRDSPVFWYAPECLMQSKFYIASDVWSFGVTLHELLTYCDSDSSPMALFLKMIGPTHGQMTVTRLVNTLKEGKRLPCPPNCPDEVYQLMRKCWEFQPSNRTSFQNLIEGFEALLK

| Compound | IC50 (JAK1 (h)) [nM] | Clearance (CL) after iv dosing [1] [mL/min/kg] | F [1] [%] | AUC(0-t) [1] [ng·h/mL] | half-life [1] [min] | Vd [1] [L/kg] | half-life at 5 μM [2, 4] [min] | CLint scaled at 5 μM ([2]; pH 7.4, Rat liver microsomes) [mL/min/kg] | half-life at 5 μM [3, 5] [min] | CLint scaled at 5 μM ([3]; pH 7.4, Human liver microsomes) [mL/min/kg] | half-life at 5 μM [2, 6] [min] | CLint scaled at 5 μM [2, 7] [mL/min/kg] | half-life at 5 μM [3, 8] [min] | CLint scaled at 5 μM [3, 9] [mL/min/kg] |
| --- | --- | --- | --- | --- | --- | --- | --- | --- | --- | --- | --- | --- | --- | --- |
| Cn1cc(Nc2ncc(Cl)c(NC3CN(C(=O)CC#N)CC34CCCC4)n2)cn1 (stereo not drawn) [Ex. 18, 3-(4-((5-chloro-2-((1-methyl-1H-pyrazol-4-yl)amino)pyrimidin-4-yl)amino)-2-azaspiro[4.4]nonan-2-yl)-3-oxopropanenitrile] | 7 | 45.8 | 55.9 | 731 | 136 | 4.32 |  |  |  |  |  |  |  |  |
| N#CCC(=O)N1CC2CC(Nc3nc(Nc4cnn(CCO)c4)ncc3Cl)CC2C1 (stereo not drawn) [Ex. 44, 3-(5-((5-chloro-2-((1-(2-hydroxyethyl)-1H-pyrazol-4-yl)amino)pyrimidin-4-yl)amino)hexahydrocyclopenta[c]pyrrol-2(1H)-yl)-3-oxopropanenitrile] | 57 | 49.3 | 12.0 | 343 | 33 | 1.09 | 398 | 6.24 | 243 | 7.15 |  |  |  |  |
| N#CCC(=O)N1CC2CC(Nc3nc(Nc4cnn(CC5CC5)c4)ncc3Cl)CC2C1 (stereo not drawn) [Ex. 46, 3-(5-((5-chloro-2-((1-(cyclopropylmethyl)-1H-pyrazol-4-yl)amino)pyrimidin-4-yl)amino)hexahydrocyclopenta[c]pyrrol-2(1H)-yl)-3-oxopropanenitrile] | 0.5 | 68.8 | 26.0 | 244 | 28.8 | 1.53 | 20.6 | 121 | 39.3 | 44.2 |  |  |  |  |
| N#CCC(=O)N1CCC2(CCC(Nc3nc(Nc4cnn(CC5CC5)c4)ncc3Cl)CC2)CC1 [Ex. 48, 3-(9-((5-chloro-2-((1-(cyclopropylmethyl)-1H-pyrazol-4-yl)amino)pyrimidin-4-yl)amino)-3-azaspiro[5.5]undecan-3-yl)-3-oxopropanenitrile] | 0.4 | 66.2 | 13.6 | 252 | 43.8 | 3.41 |  |  |  |  | 24.3 | 102 | 47.6 | 36.5 |
| N#CCC(=O)N1CCC2(CCC(Nc3nc(Nc4cnn(CCO)c4)ncc3Cl)CC2)CC1 [Ex. 50, 3-(9-((5-chloro-2-((1-(2-hydroxyethyl)-1H-pyrazol-4-yl)amino)pyrimidin-4-yl)amino)-3-azaspiro[5.5]undecan-3-yl)-3-oxopropanenitrile] | 14 | 43.2 | 17.3 | 384 | 59.4 | 1.93 |  |  |  |  | 308 | 8.07 | 537 | 3.24 |
| Cc1cnc(Nc2cnn(C)c2)nc1NC1CC2CN(c3ccc(C#N)cn3)CC2C1 (stereo not drawn) [Ex. 59, 6-(5-((5-methyl-2-((1-methyl-1H-pyrazol-4-yl)amino)pyrimidin-4-yl)amino)hexahydrocyclopenta[c]pyrrol-2(1H)-yl)nicotinonitrile] | 1 | 26.8 | 36.9 | 648 | 58.2 | 1.76 |  |  |  |  |  |  |  |  |
| Cc1cnc(Nc2cnn(C)c2)nc1NC1CC2CN(C(=O)CC#N)CC2C1 (stereo not drawn) [Ex. 60, 3-(5-((5-methyl-2-((1-methyl-1H-pyrazol-4-yl)amino)pyrimidin-4-yl)amino)hexahydrocyclopenta[c]pyrrol-2(1H)-yl)-3-oxopropanenitrile] | 5 |  |  |  |  |  | 240 | 10.3 | 244 | 7.11 |  |  |  |  |
